Results from patent US20260356849A1, “COMPOUNDS AND METHODS FOR TREATING CANCERS” (CEDARS-SINAI MEDICAL CENTER, priority 2022, published 2026).

How the values were obtained:
Format in all cases: cell-based
HepG2 cells = assay: MTT assay in HepG2 cells; settings: Homo sapiens
Protocol: (§1) The inventors identified nine inhibitors and perfomed an EdU assay after treating non-malignant (HEK293, AML12) and malignant (HepG2, MzChA-1, HT-29, RKO) cells with varying concentrations of GIT1 inhibitor for 24 hours (results are mean±SE from 3 independent experiments done in duplicates, *p<0.05 vs. DMSO). An MTT assay was also performed after treating primary human and mouse hepatocytes and liver and colon cancer cells with varying concentrations of GIT1 inhibitor for 24 hours (results are mean±SE from 3 independent experiments done in duplicates, *p<0.05 vs. DMSO). […] Percoll may be used to remove dead human hepatocytes.

RKO cells = assay: MTT assay in RKO cells; settings: Homo sapiens
Protocol: as §1

mouse hepatocytes = assay: Toxicity in mouse hepatocytes; settings: data not shown
Protocol: as §1

human hepatocytes = assay: Toxicity in human hepatocytes; settings: data not shown
Protocol: as §1

## CC(=O)c1ccc(NC(=O)Cn2cnc3c(sc4nc5c(cc43)COC(C)(C)C5)c2=O)cc1 [Compound C38]
HepG2 cells
  IC50: > 50 µM
RKO cells
  IC50: > 25 µM

## CC1(C)Cc2nc3sc4c(=O)n(CC(=O)N5CCOCC5)cnc4c3cc2CO1 [Compound C33]
Mouse hepatocytes
  toxicity in mouse hepatocytes: no toxicity
Human hepatocytes
  toxicity in human hepatocytes: no toxicity
HepG2 cells
  IC50: 0.83 µM
RKO cells
  IC50: 0.98 µM

## COc1cccc(NC(=O)Cn2cnc3c(sc4nc5c(cc43)COC(C)(C)C5)c2=O)c1 [Compound C39]
HepG2 cells
  IC50: > 25 µM
RKO cells
  IC50: > 50 µM
